We go through six compounds from paper PMC6695845 (Molecules, 2019).

For series [1], the target named is T1, human α4β2 nAChR (Homo sapiens, UniProt P17787+P43681). Kind of series: two-electrode voltage clamp on human α4β2 nAChR expressed in Xenopus laevis oocytes. Also noted: expressed in transfected cells; host or cells: Xenopus laevis oocytes (nuclear cDNA injection). The conditions noted are these: for agonist profile at human α4β2 nAChR: in words; for Imax: maximal current normalized to response to 1 mM ACh, mean ± SEM; for Emax: read-out: maximal response (efficacy) as % of the ACh Imax. Type of series: cell-based. As to the method:
The functional effects of our compounds were tested on α4β2 nAChR heterologously expressed in Xenopus laevis oocytes. Experiments were carried out by using the two-electrode voltage clamp procedure.
Figure 5 Interaction of phenylpyrrolidine derivatives with human α4β2 nicotinic receptors expressed in Xenopus laevis oocytes. Whole cell currents in response to agonist application were measured by a two-electrode voltage clamp. Concentration-response curves show activation of whole cell currents by compounds 1, 2, 3, and 4. Each point represents data from four to five cells, normalized to the amplitude of the maximal responses of ACh, which was stimulated by 1 mM of ACh. The data are fitted to a single component Hill curve.
The α4β2 nAChRs (wild type) were expressed heterologously in defolliculated oocytes from Xenopus laevis, which were dissected from adult female X. laevis frogs (Nasco, Fort Atkinson, WI, USA). The Oxford Brookes University Animal Research Committee, in accordance with the guidelines of the 1986 Scientific Procedures Act of the United Kingdom, approved the care and use of X. laevis frogs in this study. A mixture of 1:1 of human of α4 and β2 subunits for α4β2 subtype cDNAs were injected into the nuclei of oocytes in a volume of 23 nL/oocyte by using a Nanoject Automatic Oocyte Injector (Drummond Scientific, Broomall, PA, USA). After injection, oocytes were incubated at 17 °C in OPS (NaCl, KCl, CaCl2, MgCl2, pH 7.4) supplemented with a mixture of penicillin-streptomycin-anphotericin-B (10,000 IU/mL penicillin, 10 mg/mL streptomycin, and 25 µg amphotericin-B/mL) and amikacin (100 µg/mL). Experiments were performed on oocytes 2 to 6 days after injection.
Electrophysiological recording from oocyte post-injection was made at room temperature using a standard two electrode voltage clamp technique with an automatic multichannel system (HiClamp, Multichannel Systems, Reutlingen, Germany). Oocytes were impaled by two borosilicate capillary glass (Harvard Instrument: 150 TF GC) microelectrodes filled with 3 M KCl (0.3–2.0 MΩ) and voltage-clamped at −60 mV. During recording, oocytes were perfused with OPS (oocytes perfusion solution), as described in the manual of HiClamp. Agonist responses were normalized to the amplitude of the responses induced by 1 mM ACh, which is the maximal ACh concentration at α4β2 nAChRs. Between each successive ACh or compound application, the cell was perfused with OPS solution for 3 min to allow drug clearance and prevent receptor desensitization.
On the technique in general: In two-electrode clamp one electrode senses voltage and the other passes current.

For series [2], the target named is T1, human α4β2 nAChR. Kind of series: [3H]cytisine competition binding on membrane homogenates of SH-EP-hα4β2 clonal cells. Also noted: expressed in transfected cells. Conditions: mean ± SEM of four experiments. As to the method:
First, we determined the half maximal inhibitory concentration (IC50) of the synthesized molecules for human α4β2 nAChR using [^3H]-cytisine ([^3H-Cyt]) as a radioligand. It is well known that [^3H-Cyt] binds to the agonist (orthosteric) site of α4β2 nACRs.
Figure 4 Effects of phenylpyrrolidine derivatives on binding of [^3H]cytisine to human α4β2 nAChRs. Data points represent the mean ± SEM of four experiments. Each experiment was carried out in triplicate. The radioligand concentration in all displacement studies was 1 nM. The concentration-inhibition data was analyzed non-linearly.
Membrane homogenates for [^3H]-Cyt binding studies were prepared from the SH-EP-h α4β2 clonal cell line, which express human α4β2 nAChRs. Cells were maintained in Dulbecco’s modified Eagle’s medium (Invitrogen, UK) supplemented with 5% fetal serum, 10% horse serum, 2 mM L-glutamine, 10 IU/mL penicillin, 10 μg/mL streptomycin, 2.5 μg/mL amphotericin-B, 0.25 mg/mL zeocin, and 0.13 mg/mL hygromycin.
Competition binding studies were performed on membrane homogenates prepared SH-EP-hα4β2 clonal cell line, using [^3H]cyt (PerkinElmer, UK), as previously described. Membrane homogenates were incubated at a final protein concentration of 30 to 50 µg per assay tube in a final volume of 250 µL of binding saline ([…]: 120 NaCl, 5 KCl, 1 MgCl2, 2.5 CaCl2, 50 Tris, pH 7.0) for 75 min at 4 °C with 1 nM [^3H]cyt. […] Bound and free fractions were separated by rapid filtration through Whatman GF/C filters presoaked in binding saline supplemented with 0.1% polyethyleneimine. Radioactivity was quantified by liquid scintillation spectrometry.

Series [3] has as its target T1, human α4β2 nAChR. The conditions noted are these: nicotine, included for comparison, no SEM, not in Figure 5; cited from earlier work.
Setting [4] is: Xenopus laevis oocytes, -60 mV, mean ± SEM of four to five experiments, read-out: α4β2 EC50.
The mark [5] stands for this setting: displacement of 1 nM [3H]cytisine, read-out: α4β2 IC50.
[6] abbreviates: relative to 1 mM ACh, Xenopus laevis oocytes.

Several values for one entry are separate records, joined by “and”; a condition that tells them apart may be missing. Equal values may be shown once. Where a name gives a salt, the structure may show the parent alone. Read-outs that look alike come from different tables or passages of the source.

The term melting point denotes the temperature of the solid-liquid transition. `CN1CCC[C@H]1COc1cccc(N)c1` (as salt: hydrochloride) [Compound 2, (S)-1-methyl-2-(3′-aminophenoxymethyl)pyrrolidine Ether] registered a melting point of 198 to 200 °C.
The term EC50 denotes the concentration giving half of the maximal effect. One may read the IC50 as the concentration that gives 50% inhibition. `CN1CCC[C@H]1COc1ccccc1` [Compound 1, (S)-1-methyl-2-(phenoxymethyl)pyrrolidine Ether]: on human α4β2 nAChR [1] (setting [4]), the EC50 was determined as 68800 ± 1300 nM. Also, the “agonist profile at human α4β2 nAChR” value at human α4β2 nAChR [1] (Xenopus laevis oocytes) is listed as “partial agonist”. Further, the IC50 on human α4β2 nAChR [2] (setting [5]) turned out to be 204 ± 6 nM.
Turning to `CN1CCC[C@H]1COc1cccc(N)c1` [Compound 2, (S)-1-methyl-2-(3′-aminophenoxymethyl)pyrrolidine Ether], the EC50 at human α4β2 nAChR [1] (setting [4]) turned out to be 10800 ± 700 nM. Moreover, on human α4β2 nAChR [1] (Xenopus laevis oocytes), the “agonist profile at human α4β2 nAChR” value was “full agonist” and the Imax is reported as 1.00 ± 0.01. Moreover, the “fold more potent than compound 1 (EC50)” value on human α4β2 nAChR [1] (Xenopus laevis oocytes, ratio of EC50 values) is recorded as “about seven-fold”. At human α4β2 nAChR [1] (setting [6]), the Emax is 100%. Also, the IC50 on human α4β2 nAChR [2] (setting [5]) was 13 nM and 13.8 nM.
Regarding `CN1CCC[C@H]1COc1cccc(Cl)c1` [Compound 3, (S)-1-methyl-2-(3′-Chlorophenoxymethyl)pyrrolidine Ether], the EC50 at human α4β2 nAChR [1] (setting [4]) turned out to be 63300 ± 2100 nM. Besides, on human α4β2 nAChR [1] (Xenopus laevis oocytes), the “agonist profile at human α4β2 nAChR” value is on record as “partial agonist” and the Imax is 0.29 ± 0.01. The Emax at human α4β2 nAChR [1] (setting [6]) was determined as 29%. Further, at human α4β2 nAChR [2] (setting [5]), the concentration for half-maximal inhibition (IC50) worked out at 221 ± 10 nM.
For `CN1CCC[C@H]1COc1cccc(Br)c1` [Compound 4, (S)-1-methyl-2-(3′-bromophenoxymethyl)pyrrolidine Ether], at human α4β2 nAChR [1], the EC50 is 56700 ± 1700 nM and the Emax amounted to 13%. On human α4β2 nAChR [1] (Xenopus laevis oocytes), the “agonist profile at human α4β2 nAChR” value is “partial agonist” and the Imax turned out to be 0.13 ± 0.01. Further, the half-maximal inhibitory concentration (IC50) at human α4β2 nAChR [2] (α4β2 IC50, displacement of 1 nM [3H]cytisine) came to 188 ± 7 nM.
As to `CN1CCC[C@H]1c1cccnc1` [Nicotine], the Imax on human α4β2 nAChR [3] is 1.00.
